Columns and labels:
Aortic ring [1] = experiment: Relaxation of phenyphrine-induced constriction in rat aortic rings in presence of L-NAME; format: functional, Aorta; design: scale not given: the % may be the effect or the level left
Macrophage = experiment: Effect on nitric oxide production in tetrahydrobiopterin depleted mouse bone marrow macrophages at 1 uM after 72 hrs; format: functional
Aortic ring [2] = experiment: Relaxation of phenyphrine-induced constriction in rat aortic rings at 0.3 mM relative to control; format: functional, Aorta; design: scale not given: the % may be the effect or the level left
[3] = Effect on nitric oxide production in tetrahydrobiopterin depleted pig pulmonary artery endothelial cells at 30 uM after 72 hrs; format: functional, Sus scrofa, Endothelial cell
Aortic ring [4] = experiment: Relaxation of phenyphrine-induced constriction in rat aortic rings; format: functional, tissue-based; settings: Aorta
Nitric oxide synthase 1 = Nitric oxide synthase 1 (Homo sapiens, UniProt P29475); experiment: Activity of tetrahydrobiopterin free nNOS
Chain of Nitric oxide synthase 1 (P29475 whole entry): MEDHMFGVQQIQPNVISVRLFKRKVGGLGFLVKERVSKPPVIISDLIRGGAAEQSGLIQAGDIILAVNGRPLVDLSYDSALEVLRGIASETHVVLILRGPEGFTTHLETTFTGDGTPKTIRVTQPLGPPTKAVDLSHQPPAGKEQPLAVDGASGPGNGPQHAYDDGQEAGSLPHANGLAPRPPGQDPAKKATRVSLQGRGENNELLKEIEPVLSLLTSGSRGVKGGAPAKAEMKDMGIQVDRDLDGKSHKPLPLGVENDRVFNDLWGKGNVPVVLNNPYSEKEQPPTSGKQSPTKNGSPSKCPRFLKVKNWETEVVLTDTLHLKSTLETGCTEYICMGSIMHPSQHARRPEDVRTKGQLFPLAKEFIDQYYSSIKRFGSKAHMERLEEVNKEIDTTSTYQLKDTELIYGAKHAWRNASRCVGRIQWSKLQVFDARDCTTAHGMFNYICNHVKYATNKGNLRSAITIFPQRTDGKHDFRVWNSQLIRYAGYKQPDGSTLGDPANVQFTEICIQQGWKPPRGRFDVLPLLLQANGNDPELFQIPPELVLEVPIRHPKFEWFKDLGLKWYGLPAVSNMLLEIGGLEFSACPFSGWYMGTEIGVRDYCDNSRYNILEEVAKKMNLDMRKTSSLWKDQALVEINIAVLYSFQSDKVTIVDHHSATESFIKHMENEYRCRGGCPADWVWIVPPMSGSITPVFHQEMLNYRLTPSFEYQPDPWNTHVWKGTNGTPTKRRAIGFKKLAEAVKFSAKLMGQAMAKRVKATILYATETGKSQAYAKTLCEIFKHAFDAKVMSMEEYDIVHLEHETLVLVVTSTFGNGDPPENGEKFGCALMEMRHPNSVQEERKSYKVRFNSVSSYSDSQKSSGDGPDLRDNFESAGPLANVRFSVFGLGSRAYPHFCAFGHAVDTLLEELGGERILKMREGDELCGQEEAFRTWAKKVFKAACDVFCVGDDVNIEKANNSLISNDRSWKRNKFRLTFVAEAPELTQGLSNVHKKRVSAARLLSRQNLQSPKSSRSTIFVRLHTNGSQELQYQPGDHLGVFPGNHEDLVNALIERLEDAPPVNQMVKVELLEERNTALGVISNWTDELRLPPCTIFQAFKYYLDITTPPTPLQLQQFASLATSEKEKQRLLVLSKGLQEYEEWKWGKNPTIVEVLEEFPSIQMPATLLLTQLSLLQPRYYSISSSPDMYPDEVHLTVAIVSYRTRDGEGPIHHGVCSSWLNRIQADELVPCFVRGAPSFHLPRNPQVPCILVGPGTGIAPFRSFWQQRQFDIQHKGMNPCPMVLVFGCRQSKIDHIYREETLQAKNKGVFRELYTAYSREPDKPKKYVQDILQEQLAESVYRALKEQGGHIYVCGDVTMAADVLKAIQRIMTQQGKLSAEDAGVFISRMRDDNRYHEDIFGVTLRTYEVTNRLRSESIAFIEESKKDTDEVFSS

Row | SMILES | Activity (Aortic ring [1]) | Activity (Macrophage) | Activity (Aortic ring [2]) | Activity [3] | EC50 (Aortic ring [4]) | Kd (Nitric oxide synthase 1)
1 | CC(=O)C1=Nc2c(nc(N)[nH]c2=O)NC1(C)C | 5.4% | 6.2 µM | 24.2% | 11.4 µM | 10 nM | 
2 | CC(=O)C1Nc2c(nc(N)[nH]c2=O)NC1(C)C (configuration not stated) |  |  |  |  |  | 151000 nM
3 | C[C@H](O)[C@H](O)[C@H]1CNc2nc(N)[nH]c(=O)c2N1 [SAPROPTERIN] |  |  |  |  |  | 1120 nM

From ChEMBL document CHEMBL1143118, “6-Acetyl-7,7-dimethyl-5,6,7,8-tetrahydropterin is an activator of nitric oxide synthases” (Bioorg Med Chem Lett, 2008)
